In ChEMBL document CHEMBL3774354, “Discovery of Selective Histone Deacetylase 6 Inhibitors Using the Quinazoline as the Cap for the Treatment of Cancer” (J Med Chem, 2016):
The source made the active and inactive calls. No cut-off for these calls is given here.

Assays:
[1] = biological target: Histone deacetylase 7 (Homo sapiens, UniProt Q8WUI4)
Description: Inhibition of recombinant HDAC7 (unknown origin) using AMC labeled AC-peptide as substrate incubated for 1 hr by fluorescence analysis

[2] = test system: Mus musculus; experiment: Toxicity in Balb/c nude mouse xenografted with human HCT116 cells assessed as change in body weight at 50 mg/kg, iv q2d for 9 days; type: organism-based, HCT-116; settings: in vivo, 216 h
[3] = test system: A2780; experiment: Cytotoxicity against human A2780 cells after 72 hrs by MTT assay; type: functional, cell-based; settings: A2780, 72 h
[4] = test system: HepG2; experiment: Cytotoxicity against human HepG2 cells after 72 hrs by MTT assay; type: functional, cell-based; settings: HepG2, 72 h
[5] = Systemic clearance in Sprague-Dawley rat at 12 mg/kg, po measured up to 24 hrs by LC-MS/MS analysis; type: ADME, organism-based; settings: in vivo
[6] = Cytotoxicity against human SKOV3 cells after 72 hrs by MTT assay; type: functional, cell-based; settings: SK-OV-3, 72 h
[7] = biological target: Histone deacetylase 5 (Homo sapiens, UniProt Q9UQL6); experiment: Inhibition of recombinant HDAC5 (unknown origin) using AMC labeled AC-peptide as substrate at 10 uM incubated for 1 hr by fluorescence analysis
[8] = Cytotoxicity against human HCT116 cells after 72 hrs by MTT assay; type: functional, cell-based; settings: HCT-116, 72 h
[9] = Volume of distribution at steady state in Sprague-Dawley rat at 12 mg/kg, iv administered by bolus injection measured up to 24 hrs by LC-MS/MS analysis; type: ADME, organism-based; settings: in vivo, read-out: Vdss
[10] = test system: K562; experiment: Cytotoxicity against human K562 cells after 72 hrs by MTT assay; type: functional, cell-based; settings: K562, 72 h
[11] = biological target: Histone deacetylase 11 (Homo sapiens) (UniProt Q96DB2); experiment: Inhibition of recombinant HDAC11 (unknown origin) using AMC labeled AC-peptide as substrate at 10 uM incubated for 1 hr by fluorescence analysis
[12] = test system: Ramos; experiment: Antitumor activity against human Ramos cells xenografted in NOD/SCID mouse assessed as tumor mass change at 40 mg/kg, po q2d for 6 days; type: functional
[13] = Cmax in Sprague-Dawley rat at 12 mg/kg, iv administered by bolus injection measured up to 24 hrs by LC-MS/MS analysis; type: ADME, organism-based; set-up: dose 12 mg/kg, route intravenous; settings: in vivo
[14] = Cytotoxicity against human U266 cells after 72 hrs by MTT assay; type: functional, cell-based; settings: U-266, 72 h
[15] = AUC (0 to infinity) in Sprague-Dawley rat at 12 mg/kg, po measured up to 24 hrs by LC-MS/MS analysis; type: ADME, organism-based; set-up: dose 12 mg/kg, route oral, time infinity; settings: in vivo
[16] = Antitumor activity against human HCT116 cells xenografted in Balb/c nude mouse assessed as tumor mass change at 50 mg/kg, iv q2d for 9 days; type: functional, HCT-116
[17] = test system: Ramos; experiment: Antitumor activity against human Ramos cells xenografted in orally dosed NOD/SCID mouse assessed as tumor mass reduction administered as q2d for 6 days; type: functional, organism-based
[18] = biological target: Histone deacetylase 1/2/3 (Homo sapiens) (UniProt Q13547+O15379+Q92769); settings: MV4-11, 1000 nM
Description: Inhibition of HDAC1/2/3 in human MV4-11 cells assessed as upregulation of histone H3 acetylation at 1000 nM after 6 hrs by Western blot analysis

[19] = biological target: T1, Protein deacetylase HDAC6 (Homo sapiens, UniProt Q9UBN7); experiment: Inhibition of HDAC6 in human HeLa cells assessed as induction of tubulin acetylation incubated for 6 hrs by cytoblot assay; type: cell-based
T1 sequence (Q9UBN7 whole entry): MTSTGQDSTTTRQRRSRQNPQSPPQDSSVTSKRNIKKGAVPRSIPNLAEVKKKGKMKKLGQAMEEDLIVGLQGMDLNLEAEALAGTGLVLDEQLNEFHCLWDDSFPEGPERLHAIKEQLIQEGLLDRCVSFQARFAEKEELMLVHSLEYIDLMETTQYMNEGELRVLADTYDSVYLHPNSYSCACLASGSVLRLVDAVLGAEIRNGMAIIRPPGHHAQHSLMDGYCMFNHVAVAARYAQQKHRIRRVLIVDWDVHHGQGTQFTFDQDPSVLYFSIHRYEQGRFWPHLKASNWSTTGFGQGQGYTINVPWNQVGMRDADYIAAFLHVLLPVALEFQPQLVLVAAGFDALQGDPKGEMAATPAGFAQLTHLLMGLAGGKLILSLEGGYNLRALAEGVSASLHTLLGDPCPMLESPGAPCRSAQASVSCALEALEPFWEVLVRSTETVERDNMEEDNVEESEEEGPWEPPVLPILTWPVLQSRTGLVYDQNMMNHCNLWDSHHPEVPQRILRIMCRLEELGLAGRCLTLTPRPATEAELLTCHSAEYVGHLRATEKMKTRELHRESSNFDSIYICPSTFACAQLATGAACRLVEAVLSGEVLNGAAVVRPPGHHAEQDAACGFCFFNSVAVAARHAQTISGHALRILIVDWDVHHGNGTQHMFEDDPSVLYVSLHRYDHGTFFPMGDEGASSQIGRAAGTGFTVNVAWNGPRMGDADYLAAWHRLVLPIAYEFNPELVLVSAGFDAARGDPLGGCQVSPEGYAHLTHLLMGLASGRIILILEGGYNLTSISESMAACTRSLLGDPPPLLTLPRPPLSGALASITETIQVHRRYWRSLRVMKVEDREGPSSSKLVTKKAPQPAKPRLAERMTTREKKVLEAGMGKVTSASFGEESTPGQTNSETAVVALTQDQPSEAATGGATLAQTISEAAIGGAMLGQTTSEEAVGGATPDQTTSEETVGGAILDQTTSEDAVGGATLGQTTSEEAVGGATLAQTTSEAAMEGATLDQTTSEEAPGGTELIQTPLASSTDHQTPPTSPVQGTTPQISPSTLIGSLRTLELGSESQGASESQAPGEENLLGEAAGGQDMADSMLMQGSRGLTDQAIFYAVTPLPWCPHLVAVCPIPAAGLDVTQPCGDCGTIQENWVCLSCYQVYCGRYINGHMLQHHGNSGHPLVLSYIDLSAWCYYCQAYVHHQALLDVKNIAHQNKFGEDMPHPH

[20] = biological target: Histone deacetylase 9 (Homo sapiens, UniProt Q9UKV0)
Description: Inhibition of recombinant HDAC9 (unknown origin) using AMC labeled AC-peptide as substrate incubated for 1 hr by fluorescence analysis

[21] = test system: HT-29; experiment: Cytotoxicity against human HT-29 cells after 72 hrs by MTT assay; type: functional, cell-based; settings: HT-29, 72 h
[22] = test system: A549; experiment: Cytotoxicity against human A549 cells after 72 hrs by MTT assay; type: functional, cell-based; settings: A549, 72 h

Histone deacetylase 5, sequence (Q9UQL6 whole entry): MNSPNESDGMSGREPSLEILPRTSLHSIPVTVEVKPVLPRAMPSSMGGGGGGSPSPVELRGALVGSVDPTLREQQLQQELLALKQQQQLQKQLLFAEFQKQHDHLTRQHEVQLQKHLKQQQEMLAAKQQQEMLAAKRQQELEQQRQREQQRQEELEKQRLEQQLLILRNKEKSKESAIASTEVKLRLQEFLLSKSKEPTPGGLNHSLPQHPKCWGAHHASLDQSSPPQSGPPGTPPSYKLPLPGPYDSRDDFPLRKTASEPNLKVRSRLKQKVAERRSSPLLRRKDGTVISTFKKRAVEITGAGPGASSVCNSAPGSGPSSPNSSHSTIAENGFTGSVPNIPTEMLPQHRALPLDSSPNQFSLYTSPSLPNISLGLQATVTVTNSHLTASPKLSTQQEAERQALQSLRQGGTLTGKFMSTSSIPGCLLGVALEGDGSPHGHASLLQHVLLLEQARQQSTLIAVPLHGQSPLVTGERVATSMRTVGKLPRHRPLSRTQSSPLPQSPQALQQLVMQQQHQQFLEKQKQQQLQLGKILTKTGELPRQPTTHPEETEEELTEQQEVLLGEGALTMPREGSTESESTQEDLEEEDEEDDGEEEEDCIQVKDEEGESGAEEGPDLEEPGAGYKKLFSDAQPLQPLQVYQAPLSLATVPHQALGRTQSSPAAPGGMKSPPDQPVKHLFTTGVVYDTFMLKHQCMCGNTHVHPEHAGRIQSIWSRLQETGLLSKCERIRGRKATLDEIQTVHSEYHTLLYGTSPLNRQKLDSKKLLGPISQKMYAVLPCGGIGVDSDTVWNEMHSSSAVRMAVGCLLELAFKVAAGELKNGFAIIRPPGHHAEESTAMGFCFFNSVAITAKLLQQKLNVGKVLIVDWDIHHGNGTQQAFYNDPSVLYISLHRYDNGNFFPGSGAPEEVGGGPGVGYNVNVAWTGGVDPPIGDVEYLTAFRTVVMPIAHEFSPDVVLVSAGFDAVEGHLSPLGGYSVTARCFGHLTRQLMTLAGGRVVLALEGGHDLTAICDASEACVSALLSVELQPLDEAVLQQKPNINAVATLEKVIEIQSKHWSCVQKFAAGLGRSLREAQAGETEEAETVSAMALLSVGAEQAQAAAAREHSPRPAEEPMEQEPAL
Histone deacetylase 7, sequence (Q8WUI4 whole entry): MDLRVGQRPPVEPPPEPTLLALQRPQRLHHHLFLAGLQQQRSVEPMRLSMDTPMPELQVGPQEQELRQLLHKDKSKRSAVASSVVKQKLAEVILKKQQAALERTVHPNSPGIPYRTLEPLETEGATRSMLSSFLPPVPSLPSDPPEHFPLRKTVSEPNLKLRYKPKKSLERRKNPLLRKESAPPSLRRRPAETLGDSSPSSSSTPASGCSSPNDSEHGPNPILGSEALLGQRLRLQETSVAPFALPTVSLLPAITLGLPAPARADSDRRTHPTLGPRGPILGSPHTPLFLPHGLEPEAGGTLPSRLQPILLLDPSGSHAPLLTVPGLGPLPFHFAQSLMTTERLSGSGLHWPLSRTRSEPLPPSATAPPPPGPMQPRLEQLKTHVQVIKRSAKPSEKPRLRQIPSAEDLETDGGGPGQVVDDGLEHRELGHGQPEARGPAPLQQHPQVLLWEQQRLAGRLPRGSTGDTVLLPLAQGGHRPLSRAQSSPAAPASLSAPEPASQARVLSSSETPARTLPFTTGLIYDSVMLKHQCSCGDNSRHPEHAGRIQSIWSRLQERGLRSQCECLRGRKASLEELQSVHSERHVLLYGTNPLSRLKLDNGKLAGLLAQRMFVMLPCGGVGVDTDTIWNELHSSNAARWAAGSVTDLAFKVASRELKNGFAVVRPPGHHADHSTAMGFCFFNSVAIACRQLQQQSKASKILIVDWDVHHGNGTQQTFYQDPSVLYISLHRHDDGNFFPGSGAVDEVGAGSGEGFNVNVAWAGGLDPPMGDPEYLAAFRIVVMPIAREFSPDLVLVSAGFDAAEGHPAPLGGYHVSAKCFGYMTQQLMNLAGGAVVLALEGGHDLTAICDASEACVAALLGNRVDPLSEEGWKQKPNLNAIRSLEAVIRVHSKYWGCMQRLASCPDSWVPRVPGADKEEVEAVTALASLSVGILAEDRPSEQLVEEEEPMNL
Histone deacetylase 11 (Homo sapiens), sequence (Q96DB2 whole entry): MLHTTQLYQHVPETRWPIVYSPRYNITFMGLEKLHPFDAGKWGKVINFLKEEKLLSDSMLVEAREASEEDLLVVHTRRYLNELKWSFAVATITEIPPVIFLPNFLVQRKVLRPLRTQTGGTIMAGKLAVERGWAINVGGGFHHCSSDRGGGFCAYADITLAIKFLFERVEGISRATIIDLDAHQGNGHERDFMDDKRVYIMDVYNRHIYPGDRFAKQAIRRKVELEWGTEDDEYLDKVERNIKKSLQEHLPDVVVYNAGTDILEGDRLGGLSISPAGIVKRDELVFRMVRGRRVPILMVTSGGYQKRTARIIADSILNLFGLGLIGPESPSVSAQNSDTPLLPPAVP
Histone deacetylase 9, sequence (Q9UKV0 whole entry): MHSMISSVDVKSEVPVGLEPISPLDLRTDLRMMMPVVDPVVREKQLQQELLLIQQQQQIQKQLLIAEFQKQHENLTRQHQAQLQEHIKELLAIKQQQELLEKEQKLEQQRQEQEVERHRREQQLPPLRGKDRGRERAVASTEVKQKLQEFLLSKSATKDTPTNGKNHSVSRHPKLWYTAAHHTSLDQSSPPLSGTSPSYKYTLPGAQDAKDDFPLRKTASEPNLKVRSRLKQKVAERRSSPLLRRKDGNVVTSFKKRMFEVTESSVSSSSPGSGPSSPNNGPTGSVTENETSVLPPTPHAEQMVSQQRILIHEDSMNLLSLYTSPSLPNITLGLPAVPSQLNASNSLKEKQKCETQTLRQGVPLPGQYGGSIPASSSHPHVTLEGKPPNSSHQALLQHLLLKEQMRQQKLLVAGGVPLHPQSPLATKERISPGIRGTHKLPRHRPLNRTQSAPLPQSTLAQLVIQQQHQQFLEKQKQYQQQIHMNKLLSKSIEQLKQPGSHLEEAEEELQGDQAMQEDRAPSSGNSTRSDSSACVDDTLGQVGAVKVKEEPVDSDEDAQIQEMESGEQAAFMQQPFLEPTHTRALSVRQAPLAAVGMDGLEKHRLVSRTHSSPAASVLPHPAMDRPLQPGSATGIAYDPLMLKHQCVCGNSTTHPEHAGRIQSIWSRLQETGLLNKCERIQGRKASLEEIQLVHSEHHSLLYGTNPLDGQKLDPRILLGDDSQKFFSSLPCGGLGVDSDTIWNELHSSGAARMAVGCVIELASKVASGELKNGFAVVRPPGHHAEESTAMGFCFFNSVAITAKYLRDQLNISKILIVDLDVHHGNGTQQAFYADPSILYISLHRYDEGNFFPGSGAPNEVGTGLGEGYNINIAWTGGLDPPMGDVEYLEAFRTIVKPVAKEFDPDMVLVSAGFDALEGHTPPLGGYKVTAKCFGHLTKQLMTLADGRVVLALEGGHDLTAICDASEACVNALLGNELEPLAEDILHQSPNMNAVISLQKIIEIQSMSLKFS

COc1ccc(N(C)c2nc(C)nc3ccccc23)cc1OCCCC(=O)NO
IC50 [1]: > 10000 nM | Activity [2]: -5.7% | IC50 [3]: 46 nM | IC50 [4]: 41 nM | CL/F [5]: 215 mL/min/kg | IC50 [6]: 50 nM | inhibition [7]: inactive | IC50 [8]: 35 nM | Vd [9]: 61.3 L/kg | IC50 [10]: 63 nM | inhibition [11]: inactive | Activity [12]: 22.5% | Cmax [13]: 2210 ng/mL | IC50 [14]: 14 nM | AUC(0-inf) [15]: 1240 ng·h/mL | Activity [16]: 76.3% | inhibition [17]: Dose-dependent effect | inhibition [18]: Active | EC50 [19]: 58.9 nM | IC50 [20]: > 10000 nM | IC50 [21]: 72 nM | IC50 [22]: 104 nM
